Measured values from patent US10907168B2, “Jasmonic acid pathway activator” (MEDICAGO INC., priority 2015, dated 2021).

Test system: RuBisCO large and small subunit
Assay: RuBisCO large and small subunit levels, immunodetection and densitometry
Assay type: in vivo, Nicotiana benthamiana
Conditions: for depletion of RuBisCO large and small subunit pools, less than in controls: uninfiltrated leaves, seven days post-treatment
Procedure: FIGS. 1a-1d show total soluble proteins (TSP), 1-D proteome profile and RuBisCO subunit levels in agroinfiltrated and control N. benthamiana leaves treated with the stress elicitor MeJA 24 h before infection. […] FIGS. 1c and 1d show relative amounts of RuBisCO large (RbcL; FIG. 1c) and small (RbsS; FIG. 1d) subunits in MeJA-treated leaves as determined by densitometry following immunodetection with appropriate antibodies. Protein signals on the immunoblots were quantified using the Phoretix 2-D Expression software v. 2005 (NonLinear USA, Durham N.C., U.S.A.) after scanning nitrocellulose membranes with a Microtek ScanMaker II digitalizer (Microtek Laboratory, Torrance Calif., U.S.A.). Data are expressed as relative levels compared to non-treated controls assigned an arbitrary level of 1.0. Each bar on panels (a) and (c) is the mean of three independent (leaf replicate) values±SE. Infiltrated leaves were transfected with A. tumefaciens cells 24 h post-MeJA treatment. All plant samples were harvested seven days post-MeJA treatment (i.e. six days post-agroinfiltration for the transfected plants).
Forty-two day-old N. benthamiana plants grown in greenhouse were used for the experiments. Each plant was sprayed evenly with 50 ml of 0.5 mM, 1 mM or 2 mM MeJA in water containing 0.1% (v/v) Triton X-100 (Sigma-Aldrich, Mississauga ON, Canada), or with 50 ml of 1 mM arachidonic acid (Girard et al., 2007) in the same solvent, and transferred for seven days in a Conviron growth chamber (Conviron, Winnipeg MB, Canada). Plants sprayed with 50 ml of 0.1% (v/v) Triton X-100 in water were used in parallel as negative controls to avoid confounding effects due to experimental conditions. Two or three 1-cm^2 leaf discs were harvested from the third main stem leaf (see Robert et al., 2013) after seven days, as source material for protein and RNA extraction. The leaf samples were frozen immediately in liquid nitrogen and stored at −80° C. until protein or RNA extraction. Three to five biological (plant) replicates were used for each treatment, to allow for statistical treatment of the data. […]

Compound: CC/C=C\C[C@H]1C(=O)CC[C@@H]1CC(=O)OC [MeJA, methyl jasmonate]
- depletion of RuBisCO large and small subunit pools, less than in controls (0.5 mM dose): ~40%
- depletion of RuBisCO large and small subunit pools, less than in controls (2 mM dose): more than 90%
- RuBisCO large and small subunits, share of original content relative to untreated plants (agroinfiltrated leaves (empty vector, 24 h post-treatment), 1 or 2 mM, six days post-infection): less than 50%
